Measured values from ChEMBL document CHEMBL3414430 (J Med Chem, 2015).
Converted amounts (≈) assume the structure as drawn. The source made the active and inactive calls. No cut-off for these calls is given here.

What was measured:
[1] = biological target: T1, Protein deacetylase HDAC6 (Homo sapiens, UniProt Q9UBN7)
T1 sequence (Q9UBN7 whole entry): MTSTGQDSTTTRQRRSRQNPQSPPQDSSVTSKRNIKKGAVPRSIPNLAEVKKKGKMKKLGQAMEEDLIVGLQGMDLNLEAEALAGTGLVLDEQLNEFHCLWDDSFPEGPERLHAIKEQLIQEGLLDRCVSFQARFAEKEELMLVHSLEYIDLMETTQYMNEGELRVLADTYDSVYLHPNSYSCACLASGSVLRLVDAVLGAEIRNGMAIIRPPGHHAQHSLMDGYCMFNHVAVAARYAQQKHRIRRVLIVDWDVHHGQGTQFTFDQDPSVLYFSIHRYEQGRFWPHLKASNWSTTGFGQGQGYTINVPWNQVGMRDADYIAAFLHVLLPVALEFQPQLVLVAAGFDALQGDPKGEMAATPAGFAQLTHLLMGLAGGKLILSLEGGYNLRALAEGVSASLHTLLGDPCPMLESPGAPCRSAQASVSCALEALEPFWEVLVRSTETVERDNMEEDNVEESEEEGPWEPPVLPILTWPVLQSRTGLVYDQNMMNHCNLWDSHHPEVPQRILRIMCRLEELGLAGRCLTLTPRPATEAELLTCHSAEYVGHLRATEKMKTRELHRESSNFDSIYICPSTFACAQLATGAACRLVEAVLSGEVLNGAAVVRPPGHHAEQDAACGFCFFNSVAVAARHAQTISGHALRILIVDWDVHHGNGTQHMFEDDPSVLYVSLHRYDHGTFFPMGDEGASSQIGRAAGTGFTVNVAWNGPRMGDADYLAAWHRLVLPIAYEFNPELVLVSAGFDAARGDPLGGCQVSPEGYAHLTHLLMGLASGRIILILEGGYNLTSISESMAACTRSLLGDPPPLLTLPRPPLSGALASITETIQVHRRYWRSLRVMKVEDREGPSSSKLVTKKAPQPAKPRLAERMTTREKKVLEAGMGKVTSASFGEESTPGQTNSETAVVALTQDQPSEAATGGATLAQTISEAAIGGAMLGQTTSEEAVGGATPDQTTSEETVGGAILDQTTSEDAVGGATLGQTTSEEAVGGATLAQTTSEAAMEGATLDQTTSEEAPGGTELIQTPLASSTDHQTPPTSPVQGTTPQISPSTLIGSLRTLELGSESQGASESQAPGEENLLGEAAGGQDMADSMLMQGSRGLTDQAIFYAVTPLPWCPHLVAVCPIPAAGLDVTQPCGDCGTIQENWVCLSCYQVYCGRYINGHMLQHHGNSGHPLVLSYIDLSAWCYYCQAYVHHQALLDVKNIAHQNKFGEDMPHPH
Description: Inhibition of HDAC6 (unknown origin) using RHKK(Ac)AMC as substrate

[2] = biological target: Histone deacetylase 1 (Homo sapiens, UniProt Q13547)
Description: Inhibition of HDAC1 (unknown origin) using RHKK(Ac)AMC as substrate

[3] = biological target: T2, Histone deacetylase 8 (Homo sapiens, UniProt Q9BY41)
T2 sequence (Q9BY41 whole entry): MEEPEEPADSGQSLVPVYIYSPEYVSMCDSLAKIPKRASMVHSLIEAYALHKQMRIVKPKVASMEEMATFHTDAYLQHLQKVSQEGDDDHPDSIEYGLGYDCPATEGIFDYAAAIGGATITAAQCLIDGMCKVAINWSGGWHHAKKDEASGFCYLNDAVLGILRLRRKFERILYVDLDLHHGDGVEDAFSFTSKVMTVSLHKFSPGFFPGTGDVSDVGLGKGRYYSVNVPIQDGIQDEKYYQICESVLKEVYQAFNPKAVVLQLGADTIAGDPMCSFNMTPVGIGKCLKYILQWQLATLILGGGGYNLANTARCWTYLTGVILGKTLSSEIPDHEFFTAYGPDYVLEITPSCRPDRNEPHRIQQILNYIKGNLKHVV
Description: Inhibition of HDAC8 (unknown origin) using RHK(Ac)K(Ac)AMC as substrate

[4] = Solubility of the compound in PBS measured after overnight incubation by LYSA assay; assay type: physicochemical
[5] = Plasma clearance in ICR mouse; assay type: ADME, organism-based
[6] = biological target: T3, Histone deacetylase 1/2/3/6 (Homo sapiens) (UniProt Q13547+O15379+Q9UBN7+Q92769); settings: HeLa, at 10 µM
Description: Inhibition of HDAC1/HDAC2/HDAC3 in human HeLa cells assessed as induction of p21 gene expression at 10 uM after 15 hrs by luciferase reporter gene assay relative to HDAC1 inhibitor SNDX-275

[7] = biological target: T1, Protein deacetylase HDAC6; remark: listed apart in the source
Description: Inhibition of HDAC6 in human A549 cells assessed as induction of tubulin acetylation after 17 to 18 hrs by ELISA

[8] = Half life in ICR mouse at 10 mg/kg, iv; assay type: ADME, organism-based; design: dose 10 mg/kg, route intravenous; settings: in vivo
[9] = Intrinsic clearance in mouse liver microsomes at 1 uM preincubated for 10 mins followed by NADPH addition measured over 30 mins by LC-MS/MS analysis; assay type: ADME; settings: read-out: CLH
[10] = system: Mus musculus; assay: AUC (0 to infinity) in ICR mouse at 50 mg/kg, po; assay type: ADME, organism-based, Plasma; design: time infinity, dose 50 mg/kg, route oral; settings: in vivo
[11] = system: Mus musculus; assay: AUC (0 to infinity) in ICR mouse at 10 mg/kg, iv; assay type: ADME, organism-based, Plasma; design: time infinity, dose 10 mg/kg, route intravenous; settings: in vivo
[12] = Oral bioavailability in ICR mouse at 50 mg/kg; assay type: ADME, organism-based; settings: in vivo
[13] = Intrinsic clearance in human liver microsomes at 1 uM preincubated for 10 mins followed by NADPH addition measured over 30 mins by LC-MS/MS analysis; assay type: ADME; settings: read-out: CLH
[14] = biological target: T3, Histone deacetylase 1/2/3/6 (Homo sapiens); assay: Inhibition of HDAC1/HDAC2/HDAC3 in human HeLa cells assessed as induction of p21 gene expression at 10 uM after 15 hrs by luciferase reporter gene assay; assay type: cell-based
[15] = Oral bioavailability in ICR mouse at 100 mg/kg; assay type: ADME, organism-based; settings: in vivo
[16] = biological target: T3, Histone deacetylase 1/2/3/6 (Homo sapiens); assay: Inhibition of HDAC1/HDAC2/HDAC3 in human HeLa cells assessed as induction of p21 gene expression at 3 to 10 uM after 15 hrs by luciferase reporter gene assay; assay type: cell-based
[17] = Cmax in ICR mouse at 100 mg/kg, po; assay type: ADME, organism-based; design: dose 100 mg/kg, route oral; settings: in vivo
[18] = system: Mus musculus; assay: AUC (0 to infinity) in ICR mouse at 100 mg/kg, po; assay type: ADME, organism-based, Plasma; design: time infinity, dose 100 mg/kg, route oral; settings: in vivo

Chain of Histone deacetylase 1 (Q13547 whole entry): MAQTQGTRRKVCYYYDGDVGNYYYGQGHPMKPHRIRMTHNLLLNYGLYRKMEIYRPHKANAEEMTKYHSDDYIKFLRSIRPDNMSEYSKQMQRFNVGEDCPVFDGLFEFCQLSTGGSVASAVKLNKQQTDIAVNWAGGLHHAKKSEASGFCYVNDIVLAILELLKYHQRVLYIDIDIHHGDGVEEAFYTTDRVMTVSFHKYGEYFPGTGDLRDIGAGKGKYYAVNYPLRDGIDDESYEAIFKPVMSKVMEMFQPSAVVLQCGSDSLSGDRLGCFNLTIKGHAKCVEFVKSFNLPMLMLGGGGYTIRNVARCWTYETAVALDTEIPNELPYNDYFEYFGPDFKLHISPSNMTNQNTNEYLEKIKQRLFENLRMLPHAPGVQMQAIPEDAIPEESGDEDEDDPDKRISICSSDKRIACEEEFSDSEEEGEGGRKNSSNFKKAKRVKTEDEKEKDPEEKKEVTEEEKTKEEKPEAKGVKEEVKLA
T3 sequence (O15379 whole entry, looked up, one chain of several): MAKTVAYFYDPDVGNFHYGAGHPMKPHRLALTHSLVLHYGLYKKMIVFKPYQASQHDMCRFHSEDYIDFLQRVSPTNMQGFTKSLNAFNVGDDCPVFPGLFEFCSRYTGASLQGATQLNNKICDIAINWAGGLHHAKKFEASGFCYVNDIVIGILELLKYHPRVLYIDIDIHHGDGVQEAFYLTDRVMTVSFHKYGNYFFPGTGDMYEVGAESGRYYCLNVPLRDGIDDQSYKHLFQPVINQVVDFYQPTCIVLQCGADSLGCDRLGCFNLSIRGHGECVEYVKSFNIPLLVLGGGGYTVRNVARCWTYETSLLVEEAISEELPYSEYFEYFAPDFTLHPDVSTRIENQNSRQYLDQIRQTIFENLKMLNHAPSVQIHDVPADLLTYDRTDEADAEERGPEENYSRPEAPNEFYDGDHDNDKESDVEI
T3 sequence (Q13547 whole entry, looked up, one chain of several): as the sequence (Q13547 whole entry) above
T3 sequence (Q92769 whole entry, looked up, one chain of several): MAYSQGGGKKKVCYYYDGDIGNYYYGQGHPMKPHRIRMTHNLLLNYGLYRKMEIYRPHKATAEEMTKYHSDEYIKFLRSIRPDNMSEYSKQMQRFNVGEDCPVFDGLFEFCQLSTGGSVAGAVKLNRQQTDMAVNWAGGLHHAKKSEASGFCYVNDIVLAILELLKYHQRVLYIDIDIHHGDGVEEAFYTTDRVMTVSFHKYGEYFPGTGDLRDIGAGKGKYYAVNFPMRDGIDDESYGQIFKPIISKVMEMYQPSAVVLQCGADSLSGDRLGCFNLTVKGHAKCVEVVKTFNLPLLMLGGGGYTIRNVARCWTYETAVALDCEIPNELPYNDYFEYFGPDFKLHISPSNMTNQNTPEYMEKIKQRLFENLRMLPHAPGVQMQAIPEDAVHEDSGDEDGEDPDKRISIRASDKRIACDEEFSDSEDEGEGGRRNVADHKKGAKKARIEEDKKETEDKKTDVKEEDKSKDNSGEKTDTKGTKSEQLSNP

Row | SMILES | IC50 [1] [µM] | IC50 [2] [µM] | IC50 [3] [µM] | solubility [4] [µg/mL] | EC50 [7] [µM] | other results
1 | O=C(NO)c1ccc(NC2CCN(c3ccc(Cl)c(Cl)c3)C2=O)cc1 (stereo unspecified) | 0.063 | 15.9 | 0.16 | < 1 |  | 
2 | CS(=O)(=O)c1ccc(N2CCC(Nc3ccc(C(=O)NO)cc3)C2=O)cc1 (stereo unspecified) | 0.14 | 17.1 | 0.12 | 97 (≈ 249 µM) |  | 
3 | O=C(NO)c1ccc2c(c1)CC(Nc1nccc(-c3cccnc3)n1)CN2 (stereo unspecified) | 0.012 | 9.96 |  | 210 (≈ 579 µM) |  | clearance [5]: 74 mL/min/kg; inhibition [6]: inactive
4 | O=C(NO)c1ccc(NC2CCN(CCc3ccccc3)C2=O)cc1 (stereo unspecified) | 0.24 | 8.88 | 0.26 | 63 (≈ 186 µM) | 16.6 | 
5 | CC1(Nc2ccc(C(=O)NO)cc2)CCN(c2ccc(Cl)cc2)C1=O (stereo unspecified) | 0.021 | 11.2 | 0.41 | 6 (≈ 16.7 µM) |  | inhibition [14]: Active
6 | O=C(NO)c1ccc(NC2CC(=O)N(c3ccccc3)C2)cc1 (stereo unspecified) | 2.26 | > 100 | 6.25 | > 350 | 18.1 | inhibition [6]: inactive
7 | O=C(NO)c1ccc(NC2CCN(c3ccc(Cl)cc3)C2)cc1 (stereo unspecified) | 0.86 | 19.2 | 0.86 | < 1 |  | CLint scaled at 1 µM [9]: 53 mL/min/kg
8 | O=C(NO)c1ccc(NC2CCN(c3ccccc3Cl)C2=O)cc1 (stereo unspecified) | 0.36 | 21.8 | 0.15 | 24 (≈ 69.4 µM) |  | 
9 | O=C(NO)c1ccc(OC2CCN(c3ccccc3)C2=O)cc1 (stereo unspecified) | 5.74 | > 100 | 4.92 | 203 (≈ 650 µM) | > 30 | inhibition [6]: inactive
10 | O=C(NO)c1ccc(NC2CCN(c3ccc(Cl)cc3)C2=O)c(Cl)c1 (stereo unspecified) | 1.07 | 29.4 | 22.4 | < 1 | 17.4 | 
11 | CC1(Nc2ccc(C(=O)NO)cc2)CCN(c2ccccc2)C1=O (stereo unspecified) | 0.46 | > 100 | 0.59 | 415 (≈ 1280 µM) | 2.6 | 
12 | N#Cc1ccc(N2CCC(Nc3ccc(C(=O)NO)cc3)C2=O)cc1 (stereo unspecified) | 0.1 | 12.8 | 0.16 | 28 (≈ 83.2 µM) | 3.1 | 
13 | O=C(NO)c1ccc2c(c1)C[C@H](Nc1nccc(-c3cccnc3)n1)CC2 |  |  |  |  |  | clearance [5]: 99 mL/min/kg

More lines, main results first:

Row | IC50 [1] [µM] | IC50 [2] [µM] | IC50 [3] [µM] | solubility [4] [µg/mL] | EC50 [7] [µM] | SMILES | other results
14 | 0.09 | 12.1 | 0.18 | 17 (≈ 49.2 µM) |  | O=C(NO)c1ccc(NC2CCN(c3cccc(Cl)c3)C2=O)cc1 (stereo unspecified) | 
15 | 0.25 | 26.7 | 0.11 | 43 (≈ 113 µM) | 16.2 | O=C(NO)c1ccc(NC2CCN(c3ccc(C(F)(F)F)cc3)C2=O)cc1 (stereo unspecified) | 
16 |  |  |  | > 400 | 2 | CN(C)CCOc1cccc(N2CCC(Nc3ccc(C(=O)NO)cc3)C2=O)c1 (stereo unspecified) | 
17 |  |  |  | > 385 |  | O=C(CCCCCCC(=O)Nc1ccccc1)NO [VORINOSTAT] | half-life [8]: 24 min; CLint scaled at 1 µM [9]: 33 mL/min/kg; clearance [5]: 112 mL/min/kg; AUC [10]: 619 µg/L/h; AUC [11]: 1486 µg/L/h; bioavailability [12]: 8%; CLint scaled at 1 µM [13]: 0.1 mL/min/kg
18 | 1.77 | 52.3 | 0.94 |  | 19.2 | CNc1ccc(C(=O)NO)cc1 | inhibition [6]: inactive
19 | 48.8 | > 100 | 8.2 |  | > 30 | CN(c1ccc(C(=O)NO)cc1)C1CCN(c2ccccc2)C1=O (stereo unspecified) | inhibition [6]: inactive
20 | 0.16 | 14.3 | 0.12 | < 1 |  | O=C(NO)c1ccc(NC2CCN(c3ccc(Cl)cc3)C2=O)cc1 (stereo unspecified) | bioavailability [15]: 3%; half-life [8]: 66 min; CLint scaled at 1 µM [9]: 44 mL/min/kg; inhibition [16]: inactive; clearance [5]: 156 mL/min/kg; AUC [11]: 1065 µg/L/h; Cmax [17]: 57 ng/mL; AUC [18]: 278 µg/L/h; CLint scaled at 1 µM [13]: 8 mL/min/kg
21 |  |  |  | < 1 | 1.1 | O=C(NO)c1ccc(NC2CCN(c3ccc4ccccc4c3)C2=O)cc1 (stereo unspecified) | 
22 | 0.26 | 24.5 | 0.59 | 34 (≈ 94.5 µM) | 1.9 | C[C@@]1(Nc2ccc(C(=O)NO)cc2)CCN(c2ccc(Cl)cc2)C1=O | inhibition [16]: inactive
23 | 0.018 | 6.02 | 0.076 | 17 (≈ 45.2 µM) |  | CC1(Nc2ccc(C(=O)NO)cc2)CCN(c2ccc3ncccc3c2)C1=O (stereo unspecified) | inhibition [14]: Active
24 | 0.51 | 11.7 | 0.76 | > 385 |  | O=C(NO)c1ccc(NC2CCN(Cc3ccccc3)C2=O)cc1 (stereo unspecified) | 
25 |  |  |  | < 1 | 13.5 | O=C(NO)c1ccc(NC2CCN(c3ccc(Cl)cc3)C2=O)cc1F (stereo unspecified) | 
